On the set-up of series [1]: method as in earlier work. The settings on record: cited from earlier work.
Series [2] in a line: in vitro. The settings on record: human.
For series [3], the system named is IAV. Nature of the series: microbe, parasite or virus in culture. The series is classed as cell-based, Human influenza A/Udorn/307/1972 (H3N2). The settings on record: for EC50: Influenza A virus, RPE.
In series [4] the test system is vRNA-transfected RPE cells. The class given is cell-based, human.
The test system of series [5] is IAV-infected RPE cells. The class given is cell-based, human.
For series [6], the system named is mock-infected RPE cells. The settings on record: human.
Series [7] deals with MERS-CoV. The series is classed as cell-based. The following applies: Vero cells, 24 hpi, moi 0.1.
The subject of series [8] is IAV-infected RPE cells. The series is classed as cell-based, human. The source holds these as a separate data set.
For series [9], the system named is RPE or A549 cells treated with bacterial lipopolysaccharides (LPS). Nature of the series: Death of cells treated with bacterial LPS. The series is classed as cell-based, human. The following applies: LPS 10 µg/ml.
Series [10] concerns IAV-infected RPE and A549 cells. The class given is cell-based, human.

Turning to `CN(C)CC#Cc1ccc(OCCCc2sc(N3CCc4cccc(C(=O)Nc5nc6ccccc6s5)c4C3)nc2C(=O)O)c(F)c1` [A-1155463], the “side effect in animals” value in [1] was “reversible thrombocytopenia”. Further, the CC50 in [2] is 60 nM. In [3], the “effect on viral replication” value is reported as “limited viral replication” and the EC50 (commonly the concentration that produces a half-maximal response) is < 10 nM.

In [2], `Cc1c(-c2ccc(N3CCc4cccc(C(=O)Nc5nc6ccccc6s5)c4C3)nc2C(=O)O)cnn1CC12CC3CC(CC(C3)C1)C2` [A-1331852] displayed a CC50 of 50 nM. Also, in [3], the “effect on viral replication” value is listed as “limited viral replication” and the EC50 was < 10 nM.

Take `CC1(C)CCC(CN2CCN(c3ccc(C(=O)NS(=O)(=O)c4ccc(NCC5CCOCC5)c([N+](=O)[O-])c4)c(Oc4cnc5[nH]ccc5c4)c3)CC2)=C(c2ccc(Cl)cc2)C1` [ABT-199]: the CC50 in [2] worked out at 4640 nM. The compound further returned an EC50 in series [3] of 3710 nM.

The compound `CC1(C)CCC(c2ccc(Cl)cc2)=C(CN2CCN(c3ccc(C(=O)NS(=O)(=O)c4ccc(N[C@H](CCN5CCOCC5)CSc5ccccc5)c(S(=O)(=O)C(F)(F)F)c4)cc3)CC2)C1` [ABT-263] had a CC50 in series [2] of 800 nM. Also, the “death of vRNA-transfected cells” value in series [4] is recorded as “kills vRNA-transfected (160 ng) but not mock-transfected RPE cells”. In series [5], the “time post infection at which premature death of infected cells was observed” value is listed as ≤ 12 h and the “ΔAUC CTG” value is 9.9. Besides, the “time without toxicity in mock-infected cells” value in [6] is listed as “at least 36 h”. In addition, the “effect on MERS-CoV replication” value in [7] is given as “blocks MERS-CoV replication”. Also, the “ΔAUC CTxG” value in [8] stood at 2.5. Further, the “death of LPS-treated cells” value in series [9] is given as “did not accelerate the death”. Moreover, in series [3], the PFU/ml is given as 0.01x10^6 PFU/ml, the “Virus titer FC (log10)” value was found to be 2.0±0.2 log10, the “effect on viral replication” value is “limited viral replication” and it took 80 nM to reach a half-maximal effect (EC50).

In series [2], `CN(C)CC[C@H](CSc1ccccc1)Nc1ccc(S(=O)(=O)NC(=O)c2ccc(N3CCN(Cc4ccccc4-c4ccc(Cl)cc4)CC3)cc2)cc1[N+](=O)[O-]` [ABT-737] showed a CC50 of 350 nM. In series [3], the “effect on viral replication” value is listed as “limited viral replication” and the EC50 came out at 280 nM.

On to `O=C(O)[C@H]1C2CCC(CC2)[C@@H]1Nc1nc(-c2c[nH]c3ncc(F)cc23)ncc1F` [JNJ-872], for which the “rescue from ABT-263-mediated premature death” value (“rescue” for short) in [10] is on record as “rescued”.

For the compound `COC1=CC(c2cc3ccccc3[nH]2)=N/C1=C\c1[nH]c(C)cc1C` [Obatoclax, obatoclax], the “rescue” value in series [10] is recorded as “rescued”.

Regarding `C[C@H]1C/C=C/Cc2cccc(O)c2C(=O)O[C@@H](C/C=C/NC(=O)C#Cc2ccccc2)C[C@H]1O` [SaliPhe, Saliphenylhalamide], in series [10], the “rescue” value is “rescued”.

As for `Nc1ccn([C@@H]2O[C@H](CO)[C@@H](O)C2(F)F)c(=O)n1` [gemcitabine], in [10], the “rescue” value is reported as “rescued”.

The values above are taken from paper PMC5691623 (Viruses, 2017).
